{"source": "patent US20130101615A1", "about": "“METHODS FOR PREVENTING OR TREATING A DISEASE OR CONDITION ASSOCIATED WITH MYCOBACTERIUM AVIUM SUBSPECIES PARATUBERCULOSIS” (priority 2005, published 2013)", "key": {"M. avium ATCC 25291": {"test_system": "M. avium ATCC 25291", "type": "cell-based, M. avium subspecies avium", "conditions": "for % ΔcGI: M. avium 25291, vs 3.2% DMSO control; for %-ΔcGI / effect on growth, in words: M. avium ATCC 25291; for %-ΔcGI: Example 5"}, "M. avium 101": {"test_system": "M. avium 101", "type": "cell-based, M. avium subspecies avium", "conditions": "for % ΔcGI: vs 3.2% DMSO control; for %-ΔcGI: Example 5"}, "MAP ATCC 19698 (bovine)": {"test_system": "MAP ATCC 19698 (bovine)", "type": "cell-based, Mycobacterium avium subspecies paratuberculosis", "conditions": "for % ΔcGI: Bovine MAP 19698, vs 3.2% DMSO control; for %-ΔcGI / %−ΔcGI (percent decrease in cumulative GI): MAP ATCC 19698; for %-ΔcGI: Example 5"}, "[1]": {"test_system": "MAP Dominic (ATCC 43545), isolated from human with Crohn's disease", "type": "cell-based, Mycobacterium avium subspecies paratuberculosis", "conditions": "for % ΔcGI: vs 3.2% DMSO control; for %−ΔcGI (percent decrease in cumulative GI): MAP Dominic; for %-ΔcGI: Example 5"}, "[2]": {"test_system": "MAP 303 (ruminant with Johne's disease)", "assay": "Radiometric BACTEC growth inhibition, MAP 303", "type": "cell-based, Mycobacterium avium subspecies paratuberculosis", "conditions": "Bovine MAP 303, vs 3.2% DMSO control"}, "[3]": {"test_system": "MAP UCF 4, isolated from human with Crohn's disease", "assay": "Radiometric BACTEC growth inhibition, MAP UCF4", "type": "cell-based, Mycobacterium avium subspecies paratuberculosis", "conditions": "Human MAP UCF4, vs 3.2% DMSO control"}, "MAP": {"test_system": "MAP", "assay": "Growth inhibition of MAP (strain not stated or MAP strains in general)", "conditions": "for effect on growth of MAP, in words: MAP strains in general; for %−ΔcGI (percent decrease in cumulative GI): Example 3, strain not stated"}}, "note": "“Also recorded” adds a separate entry of the source. Like-named read-outs stand apart in the source and are kept apart here.", "data": [{"compound": "CC(C)/N=c1\\cc2n(-c3ccc(Cl)cc3)c3ccccc3nc-2cc1Nc1ccc(Cl)cc1", "note": "[Clofazimine, clofazimine]", "values": [{"measurement": "% ΔcGI", "setting": "M. avium ATCC 25291; 1 μg/ml", "value": "−98", "unit": "%"}, {"measurement": "% ΔcGI", "setting": "M. avium ATCC 25291; 4 μg/ml", "value": "−98", "unit": "%"}, {"measurement": "% ΔcGI", "setting": "M. avium ATCC 25291; 16 μg/ml", "value": "−98", "unit": "%"}, {"measurement": "% ΔcGI", "setting": "M. avium ATCC 25291; 64 μg/ml", "value": "−99", "unit": "%"}, {"measurement": "% ΔcGI", "setting": "M. avium 101; 1 μg/ml", "value": "−98", "unit": "%"}, {"measurement": "% ΔcGI", "setting": "M. avium 101; 4 μg/ml", "value": "−98", "unit": "%"}, {"measurement": "% ΔcGI", "setting": "M. avium 101; 16 μg/ml", "value": "−98", "unit": "%"}, {"measurement": "% ΔcGI", "setting": "M. avium 101; 64 μg/ml", "value": "−99", "unit": "%"}, {"measurement": "% ΔcGI", "setting": "MAP ATCC 19698 (bovine); 1 μg/ml", "value": "−99", "unit": "%"}, {"measurement": "% ΔcGI", "setting": "MAP ATCC 19698 (bovine); 4 μg/ml", "value": "−99", "unit": "%"}, {"measurement": "% ΔcGI", "setting": "MAP ATCC 19698 (bovine); 16 μg/ml", "value": "−99", "unit": "%"}, {"measurement": "% ΔcGI", "setting": "MAP ATCC 19698 (bovine); 64 μg/ml", "value": "−99", "unit": "%"}, {"measurement": "% ΔcGI", "setting": "[1]; 1 μg/ml, Human MAP Dominic Expt. 1", "value": "−99", "unit": "%"}, {"measurement": "% ΔcGI", "setting": "[1]; 1 μg/ml, Human MAP Dominic Expt. 2", "value": "−99", "unit": "%"}, {"measurement": "% ΔcGI", "setting": "[1]; 4 μg/ml, Human MAP Dominic Expt. 1", "value": "−99", "unit": "%"}, {"measurement": "% ΔcGI", "setting": "[1]; 4 μg/ml, Human MAP Dominic Expt. 2", "value": "−99", "unit": "%"}, {"measurement": "% ΔcGI", "setting": "[1]; 16 μg/ml, Human MAP Dominic Expt. 1", "value": "−99", "unit": "%"}, {"measurement": "% ΔcGI", "setting": "[1]; 16 μg/ml, Human MAP Dominic Expt. 2", "value": "−99", "unit": "%"}, {"measurement": "% ΔcGI", "setting": "[1]; 64 μg/ml, Human MAP Dominic Expt. 1", "value": "−99", "unit": "%"}, {"measurement": "% ΔcGI", "setting": "[1]; 64 μg/ml, Human MAP Dominic Expt. 2", "value": "−99", "unit": "%"}, {"measurement": "%−ΔcGI (percent decrease in cumulative GI)", "setting": "[1]; at 0.5 (concentration unit not given)", "value": 97, "unit": "%"}, {"measurement": "% ΔcGI", "setting": "[2]; 1 μg/ml", "value": "−99", "unit": "%"}, {"measurement": "% ΔcGI", "setting": "[2]; 4 μg/ml", "value": "−99", "unit": "%"}, {"measurement": "% ΔcGI", "setting": "[2]; 16 μg/ml", "value": "−99", "unit": "%"}, {"measurement": "% ΔcGI", "setting": "[2]; 64 μg/ml", "value": "−99", "unit": "%"}, {"measurement": "% ΔcGI", "setting": "[3]; 1 μg/ml", "value": "−99", "unit": "%"}, {"measurement": "% ΔcGI", "setting": "[3]; 4 μg/ml", "value": "−99", "unit": "%"}, {"measurement": "% ΔcGI", "setting": "[3]; 16 μg/ml", "value": "−99", "unit": "%"}, {"measurement": "% ΔcGI", "setting": "[3]; 64 μg/ml", "value": "−99", "unit": "%"}]}, {"compound": "O=C1CCCC(=O)N1O", "note": "[HPD]", "values": [{"measurement": "%-ΔcGI", "setting": "M. avium ATCC 25291; 1 μg/ml", "value": "−4", "unit": "%"}, {"measurement": "%-ΔcGI", "setting": "M. avium ATCC 25291; 4 μg/ml", "value": 47, "unit": "%"}, {"measurement": "%-ΔcGI", "setting": "M. avium ATCC 25291; 16 μg/ml", "value": 22, "unit": "%"}, {"measurement": "%-ΔcGI", "setting": "M. avium ATCC 25291; 64 μg/ml", "value": 21, "unit": "%"}, {"measurement": "effect on growth, in words", "setting": "M. avium ATCC 25291", "value": "no dose-dependent inhibition"}, {"measurement": "effect on growth, in words", "setting": "M. avium 101", "value": "no dose-dependent inhibition"}, {"measurement": "%-ΔcGI", "setting": "M. avium 101; 1 μg/ml", "value": "−12", "unit": "%"}, {"measurement": "%-ΔcGI", "setting": "M. avium 101; 4 μg/ml", "value": "−52", "unit": "%"}, {"measurement": "%-ΔcGI", "setting": "M. avium 101; 16 μg/ml", "value": "−21", "unit": "%"}, {"measurement": "%-ΔcGI", "setting": "M. avium 101; 64 μg/ml", "value": "−36", "unit": "%"}, {"measurement": "effect on growth of MAP, in words", "setting": "MAP", "value": "the most potent inhibitory agent evaluated; also recorded: inhibits the growth of MAP"}, {"measurement": "%-ΔcGI", "setting": "MAP ATCC 19698 (bovine); 1 μg/ml", "value": 22, "unit": "%"}, {"measurement": "%-ΔcGI", "setting": "MAP ATCC 19698 (bovine); 4 μg/ml", "value": 7, "unit": "%"}, {"measurement": "%-ΔcGI", "setting": "MAP ATCC 19698 (bovine); 16 μg/ml", "value": "−3", "unit": "%"}, {"measurement": "%−ΔcGI (percent decrease in cumulative GI)", "setting": "MAP ATCC 19698 (bovine); 64 μg/ml", "value": "−44", "unit": "%"}, {"measurement": "%-ΔcGI", "setting": "MAP ATCC 19698 (bovine); 64 μg/ml", "value": "−44", "unit": "%"}, {"measurement": "%-ΔcGI", "setting": "[1]; 1 μg/ml, MAP Dominic Expt A", "value": "−5", "unit": "%"}, {"measurement": "%-ΔcGI", "setting": "[1]; 1 μg/ml, MAP Dominic Expt B", "value": 16, "unit": "%"}, {"measurement": "%-ΔcGI", "setting": "[1]; 4 μg/ml, MAP Dominic Expt A", "value": "−7", "unit": "%"}, {"measurement": "%-ΔcGI", "setting": "[1]; 4 μg/ml, MAP Dominic Expt B", "value": 6, "unit": "%"}, {"measurement": "%-ΔcGI", "setting": "[1]; 16 μg/ml, MAP Dominic Expt A", "value": "−18", "unit": "%"}, {"measurement": "%-ΔcGI", "setting": "[1]; 16 μg/ml, MAP Dominic Expt B", "value": 12, "unit": "%"}, {"measurement": "%−ΔcGI (percent decrease in cumulative GI)", "setting": "[1]; 64 μg/ml", "value": 46, "unit": "%"}, {"measurement": "%-ΔcGI", "setting": "[1]; 64 μg/ml, MAP Dominic Expt A", "value": "−46", "unit": "%"}, {"measurement": "%-ΔcGI", "setting": "[1]; 64 μg/ml, MAP Dominic Expt B", "value": "−19", "unit": "%"}]}, {"compound": "O=C1CCC(N2C(=O)c3ccccc3C2=O)C(=O)N1", "note": "(racemic) [Thalidomide (±), thalidomide]", "values": [{"measurement": "%-ΔcGI", "setting": "M. avium ATCC 25291; 1 μg/ml", "value": 34, "unit": "%"}, {"measurement": "%-ΔcGI", "setting": "M. avium ATCC 25291; 4 μg/ml", "value": 37, "unit": "%"}, {"measurement": "%-ΔcGI", "setting": "M. avium ATCC 25291; 16 μg/ml", "value": 28, "unit": "%"}, {"measurement": "%-ΔcGI", "setting": "M. avium ATCC 25291; 64 μg/ml", "value": 25, "unit": "%"}, {"measurement": "effect on growth, in words", "setting": "M. avium ATCC 25291", "value": "no dose-dependent inhibition"}, {"measurement": "effect on growth, in words", "setting": "M. avium 101", "value": "no dose-dependent inhibition"}, {"measurement": "%-ΔcGI", "setting": "M. avium 101; 1 μg/ml", "value": "−20", "unit": "%"}, {"measurement": "%-ΔcGI", "setting": "M. avium 101; 4 μg/ml", "value": "−5", "unit": "%"}, {"measurement": "%-ΔcGI", "setting": "M. avium 101; 16 μg/ml", "value": 6, "unit": "%"}, {"measurement": "%-ΔcGI", "setting": "M. avium 101; 64 μg/ml", "value": "−14", "unit": "%"}, {"measurement": "%-ΔcGI", "setting": "MAP ATCC 19698 (bovine); 1 μg/ml", "value": 4, "unit": "%"}, {"measurement": "%-ΔcGI", "setting": "MAP ATCC 19698 (bovine); 4 μg/ml", "value": 8, "unit": "%"}, {"measurement": "%-ΔcGI", "setting": "MAP ATCC 19698 (bovine); 16 μg/ml", "value": "−7", "unit": "%"}, {"measurement": "%−ΔcGI (percent decrease in cumulative GI)", "setting": "MAP ATCC 19698 (bovine); 64 μg/ml", "value": 26, "unit": "%"}, {"measurement": "%-ΔcGI", "setting": "MAP ATCC 19698 (bovine); 64 μg/ml", "value": "−26", "unit": "%"}, {"measurement": "%-ΔcGI", "setting": "[1]; 1 μg/ml, MAP Dominic Expt A", "value": "−2", "unit": "%"}, {"measurement": "%-ΔcGI", "setting": "[1]; 1 μg/ml, MAP Dominic Expt B", "value": 0, "unit": "%"}, {"measurement": "%-ΔcGI", "setting": "[1]; 4 μg/ml, MAP Dominic Expt A", "value": "−4", "unit": "%"}, {"measurement": "%-ΔcGI", "setting": "[1]; 4 μg/ml, MAP Dominic Expt B", "value": "−2", "unit": "%"}, {"measurement": "%-ΔcGI", "setting": "[1]; 16 μg/ml, MAP Dominic Expt A", "value": "−9", "unit": "%"}, {"measurement": "%-ΔcGI", "setting": "[1]; 16 μg/ml, MAP Dominic Expt B", "value": "−5", "unit": "%"}, {"measurement": "%−ΔcGI (percent decrease in cumulative GI)", "setting": "[1]; 64 μg/ml", "value": 31, "unit": "%"}, {"measurement": "%-ΔcGI", "setting": "[1]; 64 μg/ml, MAP Dominic Expt A", "value": "−31", "unit": "%"}, {"measurement": "%-ΔcGI", "setting": "[1]; 64 μg/ml, MAP Dominic Expt B", "value": "−13", "unit": "%"}]}, {"compound": "CN(Cc1cnc2nc(N)nc(N)c2n1)c1ccc(C(=O)N[C@@H](CCC(=O)O)C(=O)O)cc1", "note": "[methotrexate]", "values": [{"measurement": "%−ΔcGI (percent decrease in cumulative GI)", "setting": "MAP; 2 μg/ml", "value": 40, "unit": "%"}, {"measurement": "%−ΔcGI (percent decrease in cumulative GI)", "setting": "MAP; 4 μg/ml", "value": "≥ 75", "unit": "%"}, {"measurement": "effect on growth of MAP, in words", "setting": "MAP", "value": "inhibit the growth kinetics of MAP"}]}]}
